According to PMC7142633, “Impact of B-Ring Substitution and Acylation with Hydroxy Cinnamic Acids on the Inhibition of Porcine α-Amylase by Anthocyanin-3-Glycosides” (Foods, 2020):
Where “and” joins values, the source holds several entries; their conditions need not be identical. Equal values may be shown once. Entries after “also recorded” stand apart in the source; their conditions may differ. Read-outs that look alike come from different tables or passages of the source. Marks after values point to notes of the source that are not given here. Values belong to the compound of their own block, whether it stands above or below them.

Experiments:
[1] = target: T1, α-amylase from porcine pancreas (Sus scrofa, UniProt P00690); experiment: α-amylase enzyme activity assay, GalG2CNP conversion, UV/Vis detection of CNP at 405 nm; assay type: biochemical; settings: for conversion rate (v0) / inhibitory effect in UV/Vis assay: black carrot anthocyanins, 12.5−50 µM, artifact, simulated accelerated conversion; for Ki: global fit, 12.5, 25, 50 µM, UV/Vis artifact
T1 construct: A saline suspension of α-amylase from porcine pancreas; purchased Sigma Aldrich (Steinheim, Germany) Lot #SLBN9170V (catalogue number not given); host or cells: porcine pancreas (tissue-derived)
T1 sequence (P00690 16-511): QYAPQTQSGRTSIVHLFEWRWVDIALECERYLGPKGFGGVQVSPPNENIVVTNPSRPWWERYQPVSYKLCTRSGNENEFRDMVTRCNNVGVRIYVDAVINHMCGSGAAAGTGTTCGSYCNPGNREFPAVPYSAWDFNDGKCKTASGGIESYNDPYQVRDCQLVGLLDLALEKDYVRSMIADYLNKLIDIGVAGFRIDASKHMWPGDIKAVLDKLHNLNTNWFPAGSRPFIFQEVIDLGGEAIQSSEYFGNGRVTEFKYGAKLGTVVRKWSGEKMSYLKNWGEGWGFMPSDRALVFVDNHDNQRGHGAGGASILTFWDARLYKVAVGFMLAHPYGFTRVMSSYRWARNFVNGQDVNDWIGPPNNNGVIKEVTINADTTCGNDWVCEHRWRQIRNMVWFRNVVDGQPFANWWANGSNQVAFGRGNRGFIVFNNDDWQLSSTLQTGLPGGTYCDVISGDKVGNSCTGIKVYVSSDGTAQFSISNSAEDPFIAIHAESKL
Method: The enzyme activity assay, […], was established by Homoki and co-workers and already used by the authors to evaluate the inhibitory strength of different phenolic structures. To enable the evaluation of the result obtained in the present study compared to the non-anthocyanin phenolics investigated previously, the assay conditions were identical. In short, to 12 different GalG2CNP concentrations ([S] = 0−2000 µM) in MES^+ buffer, inhibitor [I] and 50 µL enzyme solution (c = 1.51 units/~100 pM, on the basis of supplier information) were mixed in a microtiter plate (Greiner BioOne, Frickenhausen, Germany; transparent, F-bottom). For blanks, the enzyme solution was substituted with MES^+ buffer. The final volume per well was 250 µL. To quantify the reaction product, a linear calibration with eight different CNP concentrations in the range of 0−35 µM was performed for each plate. Dilutions of the anthocyanin stock solutions (0.1% HCl) were equilibrated at pH 6.1 for one hour. Final inhibitor concentrations were limited due to its strong absorption at 405 nm to 12.5, 25, and 50 µM. For each anthocyanin structure, the assay was conducted on two to three different days with freshly prepared stocks of substrate, enzyme, and inhibitor.
In addition to the Michaelis Menten constant (Km) and the maximal conversion rate (vmax) values (Table S1), inhibition constants (Kic, Kiu) were calculated by fitting the data by two approaches: (i) According to the mixed inhibition equation (Equation (4)) or competitive inhibition equation (Equation (5)), applying an optimal global fit containing data from all inhibitor concentrations including the control ([I] = 0 µM); and (ii) by an independent fit according to the Michaelis Menten equation (Equation (6)), providing the apparent values Km^app and Vmax^app (Table S2) for each inhibitor concentration, which were then used to calculate the inhibition constants (Equations (7) and (8)). (4) v0= vmax/Km/[S] · (1+[I]/Kic)+(1+[I]/Kiu), (5) v0=vmax/Km/[S] · ( 1+[I]/Kic)+1, (6) v0=vmax · [S]/Km+[S], (7) Kic=vmax^app/Km^app · [I]/vmax/Km−vmax^app/Km^app, (8) Kiu=vmax^app · [I]/vmax− vmax^app.
The IC50 values of the different anthocyanins were derived from the inhibition constants for different substrate concentrations by the Cheng−Prusoff equation (Equation (9)). (9) IC50=(Km+[S])/Km/Kic+[S]/Kiu.
• KM: Michaelis Menten constant (µM) • vmax: Maximal conversion rate of the uninhibited reaction (µM/min) • v0: Observed conversion rate at given substrate and inhibitor concentration (µM/min) • [S]: Substrate concentration • [I]: Inhibitor concentration • Kic: Inhibitor constant, reflecting the competitive inhibition in the equation (µM) • Kiu: Inhibitor constant, reflecting the uncompetitive inhibition in the equation (µM) • vmax^app: Calculated maximal conversion rate, when the Michaelis Menten equation is used on an inhibited curve (µM/min) • Km^app: Calculated Michaelis Menten constant, when the Michaelis Menten equation is used on an inhibited curve (µM) • IC50: Half maximal inhibitory concentration (inhibitor concentration needed to achieve 50% inhibition; it is dependent on the substrate concentration) (µM)
For data analyses and calculations, Origin 2018b (OriginLab, software extension Enzyme Kinetics) was used. The Levenberg−Marquardt algorithm procedure was chosen for iteration. All assays were performed in two independent replicates at different dates. Values are expressed in arithmetic means ± average deviation (AD). The statistical significance and differences between groups were analyzed by one-way analysis of variance (ANOVA), followed by Tukey’s test. Differences were considered significant when p < 0.05. Data were processed using Microsoft Excel® (2010).

[2] = target: T1, α-amylase from porcine pancreas; experiment: Isothermal titration calorimetry, single injection, GalG2CNP conversion; assay type: biochemical; settings: 100 µM inhibitor, 0.95 mM substrate, 37 °C
Method: To evaluate the inhibitory strength of 100 µM anthocyanin-3-glucosides and black carrot anthocyanins, GalG2CNP conversion to CNP was monitored by the released heat. According to the previous study, ITC measurements were carried out in a single injection experiment set-up on a MICROCALTM PEAQ-ITC calorimeter (S/N MAL1188053, Malvern Panalytical Almelo, Netherlands). Following an equilibration time of 10 min, 1 µL α-amylase (1 µM in 50 mM MES^+ buffer) was added to 0.95 mM of the substrate with or without 100 µM of the phenolic inhibitor in the cell (Vcell = 0.207 mL). The temperature was maintained at 37 °C and the sample was stirred at 750 rpm throughout. The feedback/gain mode was set to high. The resulting heat profile was transformed and the conversion rate was plotted against the substrate concentration [S] by an origin routine template provided by Malvern® for Origin version 7.

[3] = target: porcine pancreatic α-amylase; set-up: method as in doi:10.1016/j.jff.2015.11.042; settings: cited from earlier work
human salivary α-amylase = target: human salivary α-amylase; set-up: method as in PMID 26471548; settings: cited from earlier work
[4] = target: T1, α-amylase from porcine pancreas; settings: cited from earlier work; for IC50: read-out: IC50 (Cheng−Prussoff, Equation (9)); for Kmapp / vmaxapp: Michaelis Menten fit

- conversion rate (v0) / inhibitory effect in UV/Vis assay [1]: minor inhibitory effect
- inhibitory strength by ITC (thermogram, Michaelis Menten plot) [2]: no significant difference
SMILES: OC[C@H]1O[C@@H](Oc2cc3c(O)cc(O)cc3[o+]c2-c2ccc(O)c(O)c2)[C@H](O[C@@H]2OC[C@@H](O)[C@H](O)[C@H]2O)[C@@H](O)[C@H]1O [BC 2, cyanidin-3-xylosyl-galactoside]

- conversion rate (v0) / inhibitory effect in UV/Vis assay [1]: inhibits best
- Ki ([1]; Competitive Inhibition (Equation (5)), rough estimation, read-out: Kic): ~20 µM and 20 µM
- Ki ([1]; Mixed Inhibition (Equation (4)), read-out: Kiu): 98 ± 139 µM
- Ki ([1]; Mixed Inhibition (Equation (4)), rough estimation, read-out: Kic): 23 ± 3 µM
SMILES: COc1cc(/C=C/C(=O)OC[C@H]2O[C@@H](OC[C@H]3O[C@@H](Oc4cc5c(O)cc(O)cc5[o+]c4-c4ccc(O)c(O)c4)[C@H](O[C@@H]4OC[C@@H](O)[C@H](O)[C@H]4O)[C@@H](O)[C@H]3O)[C@H](O)[C@@H](O)[C@@H]2O)ccc1O [BC 4]
- inhibition type ([1]; from fits and Lineweaver−Burk / Hanes plots): complete competitive inhibition; also recorded: predominantly competitive inhibition
- inhibitory strength by ITC (thermogram, Michaelis Menten plot) [2]: significantly stronger inhibition of BC 4 compared to the non-acylated BC 2 and Cyd-3-glc

SMILES: C[C@@H]1O[C@@H](OC[C@H]2O[C@@H](Oc3cc4c(O)cc(O)cc4[o+]c3-c3ccc(O)c(O)c3)[C@H](O)[C@@H](O)[C@@H]2O)[C@H](O)[C@H](O)[C@H]1O [Cyd-3-rut]
- IC50 [3]: 31 ± 7 µM
- IC50 (human salivary α-amylase): 200 ± 24 µM

SMILES: COc1cc(-c2[o+]c3cc(O)cc(O)c3cc2O[C@@H]2O[C@H](CO)[C@@H](O)[C@H](O)[C@H]2O)cc(OC)c1O [Mlv-glc, malvidin-3-glucoside]
- IC50 (human salivary α-amylase): 675 ± 73 µM
- inhibition type (human salivary α-amylase): competitive inhibition type
- Kic/Kiu ([4]; (i) global fit, Equation (4)): 0.32 ± 0.07 ^a
- Ki ([4]; (i) global fit, mixed inhibition Equation (4), read-out: Kic): 44 ± 4 µM
- Ki ([4]; (i) global fit, mixed inhibition Equation (4), read-out: Kiu): 143 ± 44 µM
- IC50 ([4]; (i) global fit, [S] 10 µM): 46 ± 4 µM
- IC50 ([4]; (i) global fit, [S] 100 µM): 58 ± 7 µM
- IC50 ([4]; (i) global fit, [S] 10^3 µM): 106 ± 24 µM
- IC50 ([4]; (i) global fit, [S] 10^6 µM): 143 ± 44 µM
- Ki ([4]; (ii) independent Michaelis Menten fit, Equation (7), read-out: Kic): 69 ± 17 µM
- Ki ([4]; (ii) independent Michaelis Menten fit, Equation (8), read-out: Kiu): 147 ± 50 µM
- Kic/Kiu ([4]; (ii) independent fit, Equations (7) and (8)): 0.58 ± 0.35 ^a
- IC50 ([4]; (ii) independent fit, [S] 10 µM): 71 ± 16 µM
- IC50 ([4]; (ii) independent fit, [S] 100 µM): 83 ± 10 µM
- IC50 ([4]; (ii) independent fit, [S] 10^3 µM): 121 ± 21 µM
- IC50 ([4]; (ii) independent fit, [S] 10^6 µM): 147 ± 50 µM
- Kmapp ([4]; inhibitor c 25 µM): 216 ± 3 µM
- vmaxapp ([4]; inhibitor c 25 µM): 0.67 ± 0.16 µM/min
- Kmapp ([4]; inhibitor c 50 µM): 337 ± 4 µM
- vmaxapp ([4]; inhibitor c 50 µM): 0.60 ± 0.20 µM/min
- Kmapp ([4]; inhibitor c 12,5 µM): 194 ± 22 µM
- vmaxapp ([4]; inhibitor c 12,5 µM): 0.74 ± 0.24 µM/min
- Ki ([4]; from apparent values, inhibitor c 25 µM, read-out: Kic): 74 ± 1 µM
- Ki ([4]; from apparent values, inhibitor c 25 µM, read-out: Kiu): 150 ± 14 µM
- Ki ([4]; from apparent values, inhibitor c 50 µM, read-out: Kic): 36 ± 6 µM
- Ki ([4]; from apparent values, inhibitor c 50 µM, read-out: Kiu): 159 ± 66 µM
- Ki ([4]; from apparent values, inhibitor c 12,5 µM, read-out: Kic): 139 µM
- Ki ([4]; from apparent values, inhibitor c 12,5 µM, read-out: Kiu): 84 µM
- Ki ([4]; mean over inhibitor c 12,5, 25, 50 µM (Supplementary 2), read-out: Kic mean ± SD): 83 ± 52 µM
- Ki ([4]; mean over inhibitor c 12,5, 25, 50 µM (Supplementary 2), read-out: Kiu mean ± SD): 131 ± 41 µM
- inhibitory strength by ITC (thermogram, Michaelis Menten plot) [2]: Mlv-3-glc > Cyd-3-glc > Dpd-3-glc~Peo-3-glc
